Reference: article PMC4281712, “ATPase-dependent auto-phosphorylation of the open condensin hinge diminishes DNA binding” (Open Biology, 2014)

Columns and labels:
[1] = target: T1, Cut3–Cut14 (condensin SMC heterodimer; Cut3/SMC4–Cut14/SMC2) (Schizosaccharomyces pombe, UniProt P41003+P41004); assay: inhibition of γ-32P labelling, autoradiography; assay type: biochemical; conditions: 1 mM nucleotide pre-incubated 5 min; ATP 8 nM hot, 50 nM cold; 30 min, 30 °C
T1 construct: full-length SMC heterodimer co-overproduced in S. pombe; C-terminal tags kept (Cut14-3HA-His6; Cut3 mutants 8Myc)
T1 sequence (P41004 1-1324): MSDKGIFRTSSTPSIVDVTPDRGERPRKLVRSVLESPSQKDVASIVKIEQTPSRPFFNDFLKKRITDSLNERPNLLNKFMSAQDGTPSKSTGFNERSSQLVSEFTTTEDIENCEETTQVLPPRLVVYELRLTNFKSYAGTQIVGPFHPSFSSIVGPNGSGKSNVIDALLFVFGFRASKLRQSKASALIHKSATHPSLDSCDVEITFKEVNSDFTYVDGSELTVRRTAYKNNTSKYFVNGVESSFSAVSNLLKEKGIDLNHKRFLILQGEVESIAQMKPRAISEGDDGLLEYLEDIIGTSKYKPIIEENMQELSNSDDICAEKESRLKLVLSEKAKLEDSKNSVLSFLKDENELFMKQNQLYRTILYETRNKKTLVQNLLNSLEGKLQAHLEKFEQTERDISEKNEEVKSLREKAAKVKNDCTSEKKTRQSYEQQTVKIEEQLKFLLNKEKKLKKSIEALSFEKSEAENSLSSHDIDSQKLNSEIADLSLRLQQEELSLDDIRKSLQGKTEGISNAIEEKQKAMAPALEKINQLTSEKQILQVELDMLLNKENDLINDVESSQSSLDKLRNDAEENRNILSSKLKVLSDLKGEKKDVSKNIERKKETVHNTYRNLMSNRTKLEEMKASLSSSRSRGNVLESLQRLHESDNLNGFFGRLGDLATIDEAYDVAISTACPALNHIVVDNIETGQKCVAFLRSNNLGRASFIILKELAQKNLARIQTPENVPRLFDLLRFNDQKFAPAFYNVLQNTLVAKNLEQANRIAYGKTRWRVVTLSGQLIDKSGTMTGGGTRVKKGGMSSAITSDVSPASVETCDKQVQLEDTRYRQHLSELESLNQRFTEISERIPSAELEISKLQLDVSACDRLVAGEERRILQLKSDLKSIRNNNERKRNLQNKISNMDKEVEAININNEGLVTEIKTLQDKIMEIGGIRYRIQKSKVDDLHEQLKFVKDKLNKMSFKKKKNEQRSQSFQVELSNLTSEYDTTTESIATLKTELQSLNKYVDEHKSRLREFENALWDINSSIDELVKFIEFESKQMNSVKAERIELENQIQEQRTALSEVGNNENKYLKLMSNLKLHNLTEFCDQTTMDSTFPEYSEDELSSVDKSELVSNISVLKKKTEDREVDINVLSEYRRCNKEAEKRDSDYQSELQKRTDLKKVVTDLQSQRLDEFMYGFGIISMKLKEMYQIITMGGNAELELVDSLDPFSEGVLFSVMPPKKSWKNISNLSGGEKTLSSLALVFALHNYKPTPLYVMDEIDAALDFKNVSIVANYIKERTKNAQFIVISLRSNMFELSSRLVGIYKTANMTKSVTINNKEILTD
T1 sequence (P41003 1-1172): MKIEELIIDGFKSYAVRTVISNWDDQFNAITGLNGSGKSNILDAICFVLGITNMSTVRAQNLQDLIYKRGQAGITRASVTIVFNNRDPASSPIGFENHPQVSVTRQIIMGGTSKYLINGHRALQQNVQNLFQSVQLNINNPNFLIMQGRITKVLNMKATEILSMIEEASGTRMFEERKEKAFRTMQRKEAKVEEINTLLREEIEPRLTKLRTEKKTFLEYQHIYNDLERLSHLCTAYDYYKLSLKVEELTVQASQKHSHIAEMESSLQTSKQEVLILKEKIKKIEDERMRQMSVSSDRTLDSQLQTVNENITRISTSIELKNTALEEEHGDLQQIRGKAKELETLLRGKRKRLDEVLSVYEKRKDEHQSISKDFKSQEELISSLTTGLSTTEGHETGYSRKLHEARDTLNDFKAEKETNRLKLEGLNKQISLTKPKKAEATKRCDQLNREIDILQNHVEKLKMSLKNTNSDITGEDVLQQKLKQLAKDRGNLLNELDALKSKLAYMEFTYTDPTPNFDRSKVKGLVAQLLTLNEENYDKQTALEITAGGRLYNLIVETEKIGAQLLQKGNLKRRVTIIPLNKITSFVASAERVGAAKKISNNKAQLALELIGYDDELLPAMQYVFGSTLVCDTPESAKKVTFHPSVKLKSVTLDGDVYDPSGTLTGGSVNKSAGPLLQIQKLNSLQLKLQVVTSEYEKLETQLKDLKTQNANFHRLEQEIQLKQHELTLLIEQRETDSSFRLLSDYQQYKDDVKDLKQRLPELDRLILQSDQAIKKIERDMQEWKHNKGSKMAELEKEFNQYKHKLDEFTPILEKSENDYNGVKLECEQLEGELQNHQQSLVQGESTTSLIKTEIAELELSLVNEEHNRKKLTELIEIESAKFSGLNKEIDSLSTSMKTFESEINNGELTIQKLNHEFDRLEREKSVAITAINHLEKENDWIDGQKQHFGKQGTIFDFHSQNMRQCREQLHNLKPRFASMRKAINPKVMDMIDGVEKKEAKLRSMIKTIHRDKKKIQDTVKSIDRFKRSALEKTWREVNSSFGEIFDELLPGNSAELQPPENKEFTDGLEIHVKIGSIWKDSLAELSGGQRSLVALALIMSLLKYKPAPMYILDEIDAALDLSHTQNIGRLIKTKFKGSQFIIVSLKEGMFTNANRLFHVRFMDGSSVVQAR

[2] = target: T1, Cut3–Cut14 (condensin SMC heterodimer; Cut3/SMC4–Cut14/SMC2); assay: thiophosphorylation, PNBM alkylation, anti-thiophosphate ester western blot; assay type: biochemical; conditions: covalent thiophosphoryl transfer to Cut3; 10 mM ATPγS

Structure (SMILES) | inhibition of γ-32P labelling, autoradiography [1] | thiophosphorylation, PNBM alkylation, anti-thiophosphate ester western blot [2]
Nc1ncnc2c1ncn2[C@@H]1O[C@H](COP(=O)(O)OP(=O)(O)NP(=O)(O)O)[C@@H](O)[C@H]1O [AMP-PNP] | Some labelling occurred in an excess of AMP-PNP | 
Nc1ncnc2c1ncn2[C@@H]1O[C@H](COP(=O)(O)OP(=O)(O)OP(O)(O)=S)[C@@H](O)[C@H]1O [ATPγS] |  | Antibody against ATPγS detected Cut3 protein in the heterodimer after incubation in the presence of ATPγS
